# Values quoted from earlier work as cited in patent publication US9192579B2, “Sustained release drug delivery devices, methods of use, and methods of manufacturing thereof” (pSivida US, Inc., priority 2000, dated 2015).
# Tested on: CMV retinitis
# Details: intravitreal injections of 200 to 400 μg once or twice weekly, AIDS patients
smiles,measurement,value
"Nc1nc(O)c2ncn(COC(CO)CO)c2n1 [GCV, ganciclovir]",effect on CMV retinitis,temporary remission
